Measurements: US12617818B2, “Compositions and methods for modulating myosin subfragment-2 coiled coil stability and methods for using them” (UNIVERSITY OF NORTH TEXAS, priority 2020, dated 2026)
Entries after “also recorded” stand apart in the source; their conditions may differ.

What was measured:
[1] = target: skeletal muscle myosin S2 peptide (MYH2) (Homo sapiens, UniProt Q9UKX2); experiment: GFS, uncoiling of skeletal myosin S2 peptide dimer; format: biochemical; set-up: host or cells: chemical synthesis; conditions: for Force required to uncoil S2 molecule: length 10 nm, in presence of the anti-S2 peptide, ± SEM
Sequence of skeletal muscle myosin S2 peptide (MYH2) (Q9UKX2 918-953 limits assumed): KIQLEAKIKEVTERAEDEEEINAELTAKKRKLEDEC
From the text: (§1) 3-aminopropyltriethoxysilane, acetone, coupling buffer (0.01 M pyridine in water with pH 6.0), 5% glutaraldehyde, quenching solution (1 M glycine in water with pH 7.0), blocking buffer (0.01 M Tris, 0.1% sodium azide, 0.1% bovine serum albumin, 0.15 M sodium chloride, and 0.001 M ethylenediaminetetraacetic acid with pH 7.0), wash buffer (0.01 M Tris, 0.1% sodium azide, 0.15 M sodium chloride, and 0.001 M ethylenediaminetetraacetic acid with pH 7.0) low salt buffer (0.1 M potassium chloride, 0.02 M imidazole, 5 mM magnesium chloride, with pH 7.0), 1-ethyl-3-(3-dimethyaminopropyl) carbodiimide, N-hydroxysuccinamide, iodoacetamide-succinimidyl ester, 8M urea solution (50 mM imidazole and 0.1 mM tris (2-carboxyethyl) phosphine with pH 7.0) monodisperse silica beads, glass slides, glass coverslips, vacuum grease, rabbit skeletal myosin, purified actin (G-actin), 1 μM human β-cardiac myosin S2 peptide, 1 μM human β-cardiac mutants myosin S2 peptide (E930del and E924K), 1 μM human skeletal myosin S2 peptide, 1 μM human smooth myosin S2 peptide, stabilizer peptide, and destabilizer peptide. A light microscope with an objective lens of 10× was mounted on an alt-azimuthal mount. A digital video camera of Sony, XCD-V60 was replaced with the ocular lenses. Extension springs on steel bracket held the alt-azimuthal mount suspended.
(§2) Gravitational force spectroscopy (GFS), is a single molecule force spectroscopy that utilizes gravitational force to measure absolute length of a single molecule at the given force calculated by the density of the bead suspending the molecule. This technique was discovered and developed in Root lab, which measures the forces in piconewton and sub-piconewton levels. Other than absolute length of a molecule, GFS measures force range required to uncoil, stretch or extend the molecule yielding a force-distance profile for the suspended molecule. Besides that, based on the force-distance profile, number of amino acids within the molecule can be calculated. […] The GFS allowed to test the flexibility or stability of a single molecule of myosin S2 peptide and also for the S2 peptides treated with anti-S2 peptides. Flexibility of myosin S2 is not dependent on assembly myosin as a thick filament or myosin in its single molecule form. The flexibility of myosin S2 region was reported to be similar in single molecule form or myosin in a thick filament assembly thus it could be conceived that the changes seen on flexibility of myosin S2 in presence of anti-S2 peptides would correlate to changes in myosin S2 flexibility for myosin in a thick filament form (Singh et al., 2018). The schematic diagram of GFS is shown below (schematic diagrams of GFS which has two modes: (FIG. 15) free-fall mode, (FIG. 16) rotational mode.
Free fall mode, another measurement variant of GFS which allows the user to get a force distance profile on a single molecule experiencing the gravitational force. Free fall mode allows a variable force by the virtue of gravity to be exerted on a single molecule. The GFS setup, light microscope with mounted camera on spring on alt-azimuthal platform, can be dropped. The start of free-fall mode force applied to the bead is zero or close to zero. […] As the platform goes towards equilibrium, trace of the acceleration decays. During the free fall mode, GFS has a single molecule which is suspended within an immobile edge and mobile bead will now experience the variable force which would be calculated by the product of mass of the bead and the acceleration of the GFS.
The product of the GFS acceleration and the mass of the bead will provide a force trace for the single molecule tethered between the immobile edge and mobile bead. The image processing would provide distance trace for the single molecule experiencing the free fall by the GFS. When this force trace is aligned with distance trace will yield the extension or the stretch experience by the single molecule under variable forces. […]

[2] = target: T1, smooth muscle myosin S2 peptide (MYH11) (Homo sapiens, UniProt P35749); experiment: GFS, uncoiling of smooth myosin S2 peptide dimer; format: biochemical; conditions: for impact on mechanical stability of smooth muscle myosin S2 peptide: force distance curve vs control; for Force required to uncoil S2 molecule: length 10 nm, in presence of the anti-S2 peptide, ± SEM
T1 construct: host or cells: chemical synthesis
T1 sequence (P35749 with tags, fused parts or gaps): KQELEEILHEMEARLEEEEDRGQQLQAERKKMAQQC
From the text: as §1
as §2, with “The flexibility of myosin S2 region was reported to be similar in single molecule form or myosin in a thick filament assembly thus it could be conceived that the changes seen on flexibility of myosin S2 in presence of anti-S2 peptides would correlate to changes in myosin S2 flexibility for myosin in a thick filament form (Singh et al., 2018). The schematic diagram of GFS is shown below (schematic diagrams of GFS which has two modes: (FIG. 15) free-fall mode, (FIG. 16) rotational mode.” left out
Free fall mode, another measurement variant of GFS which allows the user to get a force distance profile on a single molecule experiencing the gravitational force. […] During the free fall mode, GFS has a single molecule which is suspended within an immobile edge and mobile bead will now experience the variable force which would be calculated by the product of mass of the bead and the acceleration of the GFS. […]

| SMILES | Force required to uncoil S2 molecule [1] | increase of force required to uncoil the coiled coil ([1]; vs absence of anti-S2 peptide) | impact on mechanical stability of smooth muscle myosin S2 peptide [2] | Force required to uncoil S2 molecule [2] | Force required to uncoil S2 molecule ([1]; listed as destabilizer peptide) | decrease of force required to uncoil the coiled coil ([1]; vs absence of anti-S2 peptide) |
| --- | --- | --- | --- | --- | --- | --- |
| C[C@H](NC(=O)[C@H](CCCCN)NC(=O)[C@H](Cc1ccccc1)NC(=O)[C@H](CCCCN)NC(=O)[C@H](CCCCN)NC(=O)[C@H](CCCCN)NC(=O)[C@H](CCCCN)NC(=O)[C@H](CCCCN)NC(=O)[C@H](CCCCN)NC(=O)[C@H](CCCCN)NC(=O)[C@@H](N)CCCCN)C(=O)N[C@@H](CCCCN)C(=O)N[C@@H](CCCCN)C(=O)N[C@@H](CCCCN)C(=O)N[C@@H](CCCCN)C(=O)N[C@@H](CCCCN)C(=O)N[C@@H](CCCCN)C(=O)O [Stabilizer] | 6.28E−01 ± 4.32E−02 pN | 1.40 times | do not have an impact; also recorded: no effect | 4.96E−01 ± 7.60E−02 pN | – | – |
| CSCC[C@H](NC(=O)[C@H](CCC(=O)O)NC(=O)[C@H](CCCNC(=N)N)NC(=O)[C@H](CCC(=O)O)NC(=O)[C@H](CC(=O)O)NC(=O)[C@H](CCC(=O)O)NC(=O)[C@H](CC(C)C)NC(=O)[C@H](CCCNC(=N)N)NC(=O)[C@H](CCC(=O)O)NC(=O)[C@H](CC(N)=O)NC(=O)[C@H](CCSC)NC(=O)[C@@H](N)CCC(=O)O)C(=O)N[C@@H](CCCCN)C(=O)N[C@@H](C)C(=O)N[C@@H](CCC(=O)O)C(=O)N[C@@H](CC(C)C)C(=O)N[C@H](C(=O)N[C@@H](C)C(=O)N[C@@H](CCCCN)C(=O)O)[C@@H](C)O [Destabilizer] | 1.84E−01 ± 4.00E−02 pN | – | do not have an impact | 4.51E−01 ± 2.98E−02 pN | 1.84×10^−1±4.00×10^−2 pN | 2.45 times |
